Columns and labels:
[1] = target: KRAS G13D (Homo sapiens (Human), UniProt P01116+P62937, G13D); experiment: Ras-Raf disruption/FRET/MOA assay (BRAF RBD, Cyclophilin A); format: biochemical; conditions: read-out: KRAS G13D FRET data IC50
Procedure, shortened: (§1)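 Measured: compound-facilitated Cyclophilin A:Ras complex blocking RAF RBD binding. Conditions: 12.5 nM Ras-GMPPNP, 50 nM BRAF RBD, 25 μM CypA, 3 h plus 1.5 h detection. Output: IC50 from TR-FRET ratio.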

[2] = target: KRAS WT (Homo sapiens (Human), UniProt P01116+P62937); experiment: as above; format: biochemical; conditions: read-out: KRAS WT FRET data IC50
Procedure, shortened: as §1

[3] = target: KRAS G12S (Homo sapiens (Human), UniProt P01116+P62937, G12S); experiment: as above; format: biochemical; conditions: read-out: KRAS G12S FRET IC50
Procedure, shortened: as §1

[4] = target: KRAS Q61H (Homo sapiens (Human), UniProt P01116+P62937, Q61H); experiment: as above; format: biochemical
Procedure, shortened: as §1

[5] = target: KRAS G12V (Homo sapiens (Human), UniProt P01116+P62937, G12V); experiment: as above; format: biochemical; conditions: read-out: KRAS G12V FRET IC50
Procedure, shortened: as §1

[6] = target: KRAS G12C (Homo sapiens (Human), UniProt P01116+P62937, G12C); experiment: as above; format: biochemical; conditions: read-out: KRAS G12C FRET IC50
Procedure, shortened: as §1

[7] = target: NRAS G12C (Homo sapiens (Human), UniProt P01111+P62937, G12C); experiment: as above; format: biochemical; conditions: read-out: NRAS G12C FRET data IC50
Procedure, shortened: (§2)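 25 μM tagless Cyclophilin A, 12.5 nM His6-Ras-GMPPNP and 50 nM GST-BRAF RBD in HEPES pH 7.3 buffer with 5 mM MgCl2, with compound (10-point 3-fold series from 30 μM final) for 3 h at 25 °C. Anti-His Eu and anti-GST APC then added for 1.5 h. IC50 from TR-FRET ratio decrease versus DMSO.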

[8] = target: KRAS G13C (Homo sapiens (Human), UniProt P01116+P62937, G13C); experiment: as above; format: biochemical; conditions: read-out: KRAS G13C FRET IC50
Procedure, shortened: as §1

[9] = target: KRAS G12D (Homo sapiens (Human), UniProt P01116+P62937, G12D); experiment: as above; format: biochemical; conditions: read-out: KRAS G12D FRET IC50
Procedure, shortened: as §1

[10] = tested on: Capan-1 cells (K-Ras G12V); experiment: CellTiter-Glo cell viability, Capan-1; format: cell-based, human; conditions: Homo sapiens, CAPAN-1, 120 h, K-Ras G12V, 5-day treatment; read-out: Capan-1 Cell Viability IC50
Procedure, shortened: (§3)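 Cells seeded, compound dispensed straight into wells, 5-day exposure. Plates brought to room temperature ~30 min, CellTiter-Glo luminescence measured. Normalized to DMSO (%), 4-parameter logistic fit.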

[11] = target: NRAS WT (Homo sapiens (Human), UniProt P01111+P62937); experiment: Ras-Raf disruption/FRET/MOA assay (BRAF RBD, Cyclophilin A); format: biochemical
Procedure, shortened: as §2

[12] = tested on: NCI-H358 cells (K-Ras G12C); experiment: CellTiter-Glo cell viability, NCI-H358; format: cell-based, human; conditions: Homo sapiens, NCI-H358, 120 h, K-Ras G12C, 5-day treatment; read-out: H358 Cell Viability IC50
Procedure, shortened: as §3

[13] = tested on: K-Ras G12C (NCI-H358 cells); experiment: Potency assay: pERK in NCI-H358 cells; format: cell-based, human; conditions: Homo sapiens; NCI-H358 cells, 4 hours; read-out: pERK EC50 (H358 KRAS G12C)
Procedure, shortened: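 Cells plated the day before were exposed for 4 h at 37° C, 5% CO2 to a 10-point, 3-fold DMSO dilution series (10 mM top stock), in duplicate. Phospho-ERK was read by AlphaLISA SureFire Ultra or by In-Cell Western with DRAQ5 DNA stain, and IC50 came from a 4-parameter sigmoidal fit.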

Sequence of NRAS G12C (P01111 whole entry G12C): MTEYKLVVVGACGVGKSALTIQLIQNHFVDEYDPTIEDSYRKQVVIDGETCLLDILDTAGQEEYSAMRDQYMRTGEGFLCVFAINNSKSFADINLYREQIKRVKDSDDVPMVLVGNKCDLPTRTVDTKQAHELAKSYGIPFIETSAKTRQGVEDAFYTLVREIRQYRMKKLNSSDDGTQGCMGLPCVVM
Sequence of NRAS G12C (P62937 whole entry): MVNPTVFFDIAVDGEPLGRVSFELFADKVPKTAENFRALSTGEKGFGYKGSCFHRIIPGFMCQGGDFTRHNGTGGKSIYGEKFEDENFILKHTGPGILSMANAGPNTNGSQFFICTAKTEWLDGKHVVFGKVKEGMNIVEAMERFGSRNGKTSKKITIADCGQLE
Sequence of KRAS G13D (P01116 other isoform, or with tags, fused parts or gaps G13D): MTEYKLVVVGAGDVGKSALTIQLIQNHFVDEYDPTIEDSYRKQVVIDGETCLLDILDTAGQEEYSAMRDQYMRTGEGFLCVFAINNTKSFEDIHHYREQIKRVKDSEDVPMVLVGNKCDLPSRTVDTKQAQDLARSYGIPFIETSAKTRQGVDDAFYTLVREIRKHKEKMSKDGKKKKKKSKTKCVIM
Sequence of KRAS G13D (P62937 whole entry): as the sequence (P62937 whole entry) above
Sequence of KRAS G12C (P01116-2 other isoform, or with tags, fused parts or gaps G12C): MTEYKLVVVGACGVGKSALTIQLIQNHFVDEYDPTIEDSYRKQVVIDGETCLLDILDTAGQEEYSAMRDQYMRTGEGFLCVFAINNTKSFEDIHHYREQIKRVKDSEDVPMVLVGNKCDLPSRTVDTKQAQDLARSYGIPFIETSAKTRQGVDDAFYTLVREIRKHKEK
Sequence of KRAS G12C (P62937 whole entry): as the sequence (P62937 whole entry) above
Sequence of KRAS WT (P01116 other isoform, or with tags, fused parts or gaps): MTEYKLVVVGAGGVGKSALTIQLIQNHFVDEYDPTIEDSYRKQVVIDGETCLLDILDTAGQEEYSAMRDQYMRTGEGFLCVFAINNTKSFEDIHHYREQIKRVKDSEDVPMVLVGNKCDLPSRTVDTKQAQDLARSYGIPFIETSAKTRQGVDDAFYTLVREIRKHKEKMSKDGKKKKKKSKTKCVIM
Sequence of KRAS WT (P62937 whole entry): as the sequence (P62937 whole entry) above
Sequence of KRAS G13C (P01116 other isoform, or with tags, fused parts or gaps G13C): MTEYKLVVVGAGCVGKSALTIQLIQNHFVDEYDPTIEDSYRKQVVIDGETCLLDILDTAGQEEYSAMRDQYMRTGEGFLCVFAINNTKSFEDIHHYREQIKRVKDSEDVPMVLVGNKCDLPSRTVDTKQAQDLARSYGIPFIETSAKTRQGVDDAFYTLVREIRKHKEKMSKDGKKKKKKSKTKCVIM
Sequence of KRAS G13C (P62937 whole entry): as the sequence (P62937 whole entry) above
Sequence of KRAS G12S (P01116 other isoform, or with tags, fused parts or gaps G12S): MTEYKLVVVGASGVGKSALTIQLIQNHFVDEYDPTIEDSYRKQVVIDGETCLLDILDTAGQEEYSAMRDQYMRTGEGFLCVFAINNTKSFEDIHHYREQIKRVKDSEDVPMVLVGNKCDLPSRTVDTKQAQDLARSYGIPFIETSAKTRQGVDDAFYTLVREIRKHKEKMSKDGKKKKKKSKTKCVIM
Sequence of KRAS G12S (P62937 whole entry): as the sequence (P62937 whole entry) above
Sequence of NRAS WT (P01111 whole entry): as the sequence (P01111 whole entry G12C) above, with C12G counted along it
Sequence of NRAS WT (P62937 whole entry): as the sequence (P62937 whole entry) above
Sequence of KRAS G12D (P01116 other isoform, or with tags, fused parts or gaps G12D): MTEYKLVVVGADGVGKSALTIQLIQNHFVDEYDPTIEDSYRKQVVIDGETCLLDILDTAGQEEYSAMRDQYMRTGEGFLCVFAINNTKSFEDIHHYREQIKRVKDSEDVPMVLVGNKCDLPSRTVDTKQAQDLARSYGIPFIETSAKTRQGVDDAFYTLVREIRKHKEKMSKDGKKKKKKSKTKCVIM
Sequence of KRAS G12D (P62937 whole entry): as the sequence (P62937 whole entry) above
Sequence of KRAS Q61H (P01116 other isoform, or with tags, fused parts or gaps Q61H): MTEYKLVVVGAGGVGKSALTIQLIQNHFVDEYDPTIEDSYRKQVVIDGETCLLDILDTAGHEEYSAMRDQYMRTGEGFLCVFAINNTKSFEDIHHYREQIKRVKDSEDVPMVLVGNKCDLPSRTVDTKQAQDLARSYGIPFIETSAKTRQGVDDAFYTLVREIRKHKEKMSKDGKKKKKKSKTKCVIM
Sequence of KRAS Q61H (P62937 whole entry): as the sequence (P62937 whole entry) above
Sequence of KRAS G12V (P01116 other isoform, or with tags, fused parts or gaps G12V): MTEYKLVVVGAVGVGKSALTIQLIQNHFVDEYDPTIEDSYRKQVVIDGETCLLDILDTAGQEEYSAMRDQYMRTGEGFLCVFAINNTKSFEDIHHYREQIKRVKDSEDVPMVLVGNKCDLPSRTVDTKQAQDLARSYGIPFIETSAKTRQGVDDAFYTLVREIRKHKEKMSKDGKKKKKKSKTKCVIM
Sequence of KRAS G12V (P62937 whole entry): as the sequence (P62937 whole entry) above

Row | IC50 [1] [nM] | IC50 [2] [nM] | IC50 [3] [nM] | IC50 [4] [nM] | IC50 [5] [nM] | IC50 [6] [nM] | IC50 [7] [nM] | IC50 [8] [nM] | IC50 [9] [nM] | IC50 [11] [nM] | IC50 [12] [nM] | EC50 [13] [nM] | SMILES | IC50 [10] [nM]
1 | 100 to 1000 | 10 to 100 | 100 to 1000 | 10 to 100 | 10 to 100 | 10 to 100 | 10 to 100 | 100 to 1000 | 100 to 1000 | – | – | – | CCn1c(-c2cccnc2[C@H](C)OC)c2c3cc(ccc31)-c1csc(n1)C[C@H](NC(=O)[C@H](C(C)C)N(C)C(=O)N1CC([C@@H](C)OC)C1)C(=O)N1CCC[C@H](N1)C(=O)OCC(C)(C)C2 [Compound A278] | 10 to 100
2 | 100 to 1000 | 100 to 1000 | 100 to 1000 | 10 to 100 | 100 to 1000 | 10 to 100 | 10 to 100 | 100 to 1000 | 100 to 1000 | 10 to 100 | – | – | CCn1c(-c2cccnc2[C@H](C)OC)c2c3cc(ccc31)-c1csc(n1)C[C@H](NC(=O)[C@H](C(C)C)N(C)C(=O)N1CC[C@@H]1C)C(=O)N1CCC[C@H](N1)C(=O)OCC(C)(C)C2 [Compound A304] | 10 to 100
3 | 100 to 1000 | 100 to 1000 | 100 to 1000 | 10 to 100 | 10 to 100 | 10 to 100 | 10 to 100 | 100 to 1000 | 100 to 1000 | 10 to 100 | – | – | CCn1c(-c2cccnc2[C@H](C)OC)c2c3cc(ccc31)-c1csc(n1)C[C@H](NC(=O)[C@H](C(C)C)N(C)C(=O)N1CCC1)C(=O)N1CCC[C@H](N1)C(=O)OCC(C)(C)C2 [Compound A399] | 10 to 100
4 | 100 to 1000 | 100 to 1000 | 100 to 1000 | 10 to 100 | 100 to 1000 | 10 to 100 | 10 to 100 | 100 to 1000 | 100 to 1000 | 10 to 100 | – | – | CCn1c(-c2cc(N3CCN(C)CC3)cnc2[C@H](C)OC)c2c3cc(ccc31)-c1csc(n1)C[C@H](NC(=O)[C@H](C(C)C)N(C)C(=O)[C@@H]1OCC[C@@H]1c1ccncc1)C(=O)N1CCC[C@H](N1)C(=O)OCC(C)(C)C2 [Compound A450] | –
5 | 100 to 1000 | 10 to 100 | 100 to 1000 | 10 to 100 | 10 to 100 | 10 to 100 | 10 to 100 | 100 to 1000 | 100 to 1000 | 10 to 100 | 10 to 100 | < 5000 | CCn1c(-c2cccnc2[C@H](C)OC)c2c3cc(ccc31)-c1csc(n1)C[C@H](NC(=O)[C@H](C(C)C)N(C)C(=O)N(C)N(C)C)C(=O)N1CCC[C@H](N1)C(=O)OCC(C)(C)C2 [Compound A454] | 10 to 100
6 | 100 to 1000 | 10 to 100 | 10 to 100 | 10 to 100 | 10 to 100 | 10 to 100 | 10 to 100 | 10 to 100 | 100 to 1000 | 10 to 100 | – | – | CCn1c(-c2cc(N3CCN(C)CC3)cnc2[C@H](C)OC)c2c3cc(ccc31)-c1csc(n1)C[C@H](NC(=O)[C@H](C(C)C)N(C)C(=O)N1CC(C3COC3)C1)C(=O)N1CCC[C@H](N1)C(=O)OCC(C)(C)C2 [Compound A465] | –
